From PMC4080778, “Steroid conversion with CYP106A2 – production of pharmaceutically interesting DHEA metabolites” (Microbial Cell Factories, 2014)

Molecular target: T1, CYP106A2 (Priestia megaterium, UniProt Q06069)
T1 sequence (Q06069 1-410): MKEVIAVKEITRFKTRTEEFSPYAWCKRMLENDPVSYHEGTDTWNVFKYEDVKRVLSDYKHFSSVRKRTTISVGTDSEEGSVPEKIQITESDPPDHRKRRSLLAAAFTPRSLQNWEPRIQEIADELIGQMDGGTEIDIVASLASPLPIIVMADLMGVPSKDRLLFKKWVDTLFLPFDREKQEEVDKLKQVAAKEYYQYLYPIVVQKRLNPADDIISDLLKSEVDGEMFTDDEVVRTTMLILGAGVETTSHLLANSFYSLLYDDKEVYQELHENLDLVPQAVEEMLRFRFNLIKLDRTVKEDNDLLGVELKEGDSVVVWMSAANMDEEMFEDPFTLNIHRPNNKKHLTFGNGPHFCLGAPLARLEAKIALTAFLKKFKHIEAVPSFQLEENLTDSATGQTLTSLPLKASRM
Test: UV-vis difference spectroscopy titration (type I high-spin shift, tandem cuvettes)
Format: binding

Question: `C[C@]12CCC(=O)C=C1CC[C@@H]1[C@@H]2CC[C@]2(C)C(=O)CC[C@@H]12` [androstenedione] was tested. Which Kd did it give?
Answer: 92 ± 11 µM
